{
  "source": "patent US7666868B2",
  "about": "“N-sulphonylpyrroles and their use as histone deacetylase inhibitors” (4SC AG, priority 2005, dated 2010)",
  "data": [
    {"system": "HeLa cervical carcinoma cell line", "test": "Cellular cytotoxicity assay (Alamar Blue / Resazurin)", "type": "cell-based", "conditions": "Homo sapiens; HeLa cells, 48 hours incubation; read-out: IC50 (anti-proliferative/cytotoxic potency)", "description": "The anti-proliferative activity of the histone deacetylase inhibitory compounds as described herein, is evaluated with the HeLa cervical carcinoma cell line (ATCC CCL2) using the Alamar Blue (Resazurin) cell viability assay (O'Brien et al. Eur J Biochem 267, 5421-5426, 2000). Resazurin is reduced to the fluorescent resorufin by cellular dehydrogenase activity, correlating with viable, proliferating cells. Test compounds are dissolved as 10 mM solutions in dimethylsulfoxide (DMSO) and subsequently diluted in semi-logarithmic steps. HeLa cells are seeded into 96 well flat bottom plates at a density of 3000 cells per well in a volume of 200 μl per well. 24 hours after seeding 1 μl each of the compound dilutions are added into each well of the 96 Well plate. Each compound dilution is tested as quadruplicates. Wells containing untreated control cells are filled with 200 μl DMEM medium containing 0.5% v:v DMSO. The cells are then incubated with the substances for 48 hours at 37° C. in a humidified atmosphere containing 5% carbon dioxide. To determine the viability of the cells, 20 μl of an Resazurin solution (Sigma; 90 mg/l) are added. After 4 hours incubation at 37° C. the fluorescence is measured at an extinction of 544 nm and an emission of 590 nm. For the calculation of the cell viability the emission value from untreated cells is set as 100% viability and the emission rates of treated cells are set in relation to the values of untreated cells. Viabilites are expressed as % values. The corresponding IC50 values of the compounds for cytotoxic activity are determined from the concentration-effect curves by means of non-linear regression.", "units": {"IC50": "nM"}, "values": [
      {"compound": "CN(C)Cc1ccc(-c2ccc(S(=O)(=O)n3ccc(/C=C/C(=O)Nc4ccccc4N)c3)cn2)cc1", "note": "[Compound 89, (E)-N-(2-Amino-phenyl)-3-{1-[6-(4-dimethylaminomethyl-phenyl)-pyridine-3-sulfonyl]-1H-pyrrol-3-yl}-acrylamide]", "IC50": "14 to 6700"},
      {"compound": "CN(C)Cc1ccc(-c2ccc(S(=O)(=O)n3ccc(/C=C/C(=O)NO)c3)cn2)cc1", "note": "[Compound 105, (E)-3-{1-[6-(4-Dimethylaminomethyl-phenyl)-pyridine-3-sulfonyl]-1H-pyrrol-4-yl}-N-hydroxy-acrylamide]", "IC50": "14 to 6700"},
      {"compound": "Cn1cc(-c2ccc(S(=O)(=O)n3ccc(/C=C/C(=O)Nc4ccccc4N)c3)s2)cn1", "note": "[Compound 104, (E)-N-(2-Amino-phenyl)-3-{1-[5-(1-methyl-1H-pyrazol-4-yl)-thiophene-2-sulfonyl]-1H-pyrrol-3-yl}-acrylamide]", "IC50": "14 to 6700"},
      {"compound": "CN1CCN(CCOc2ccc(-c3ccc(S(=O)(=O)n4ccc(/C=C/C(=O)NO)c4)cc3)cc2)CC1", "note": "[Compound 76, (E)-N-Hydroxy-3-(1-{4′-[2-(4-methyl-piperazin-1-yl)-ethoxy]-biphenyl-4-sulfonyl}-1H-pyrrol-3-yl)-acrylamide]", "IC50": "14 to 6700"},
      {"compound": "CS(=O)(=O)Nc1ccc(-c2cccc(S(=O)(=O)n3ccc(/C=C/C(=O)Nc4ccccc4N)c3)c2)cc1", "note": "[Compound 101, (E)-N-(2-Amino-phenyl)-3-[1-(4′-methanesulfonylamino-biphenyl-3-sulfonyl)-1H-pyrrol-3-yl]-acrylamide]", "IC50": "14 to 6700"}
    ]},
    {"system": "histone H3 acetylation (lysine 9+14) in HeLa cervical carcinoma cells", "test": "Cellular histone H3 acetylation assay", "type": "cell-based", "conditions": "Homo sapiens, 24 h incubation with compound, read-out: EC50 (histone H3 acetylating cellular potency)", "source_text": "To assess the cellular efficacy of an histone deactylase inhibitor in vitro, an assay is set up in black clear-bottom 96-well plates and optimized for use on the Cellomics “ArrayScan II” platform for a quantitative calculation of histone acetylation. The protocol uses a polyclonal rabbit antibody, specifically binding to acetylated lysine 9+14 of human histone H3 on fixed cells with an Alexa Fluor 488 labeled goat ant rabbit-IgG used for counterstaining (modified from Braunger et al. MCR annual conference 2003, Abstract 4556).\n5×10^3 HeLa cervical carcinoma cells/well (ATCC CCL-2) in 200 μl Dulbecco's modified Eagle's medium (DMEM) containing 10% fetal calf serum are seeded at day 1 in Packard view plates and incubated for 24 h under standard cell culture conditions. On day 2, 2 μl test compound (100× final concentration) is added and incubation continued for further 24 h. On day 3, the culture medium is discarded and attached cells fixed for 15 min at room temperature by addition of 100 μl fixation buffer (3.7% v:v formaldehyde in phosphate buffered saline/PBS). After discarding the fixation buffer and one wash with PBS, cells are permeabilized at room temperature by addition of 100 μl/well permeabilization buffer (30.8 mM NaCl, 0.54 mM Na2HPO4, 0.31 mM KH2PO4, 5% v:v Triton X-100) for 15 min at room temperature. After discarding the permeabilization buffer and washing twice with 100 μl/well blocking solution (PBS with 0.05% v:v Tween 20 and 5% w:v milk powder) at room temperature, the 1st antibody (anti-K9+14 histone H3 antibody, Calbiochem No. 382158) in blocking solution (50 μl/well) is added. After incubation for 1 h at 37° C., the wells are washed twice at room temperature with 100 μl/well blocking solution before addition of the 2nd antibody (goat-anti-rabbit Alexa Fluor 488; MoBiTec No. A-11008) in blocking solution (50 μl/well). After further incubation for 1 h at 37° C., wells are washed twice with 100 μl/well blocking solution room temperature. Finally, 100 d/well PBS are added and image analysis performed on the Cellomics “ArrayScan II” platform. For calculation of EC50 values, the nuclear fluorescence in cells treated with and without a reference HDAC inhibitor (eg NVP-LBH-589) are taken as a positive and negative control. For EC50 determination, the percentage of positive cells is determined and EC50 calculation done from concentration-effect curves by means of non-linear regression.", "units": {"EC50": "nM"}, "values": [
      {"compound": "CS(=O)(=O)Nc1cccc(-c2ccc(S(=O)(=O)n3ccc(/C=C/C(=O)Nc4ccccc4N)c3)cc2)c1", "note": "[Compound 59, (E)-N-(2-Amino-phenyl)-3-[1-(3′-methanesulfonylamino-biphenyl-4-sulfonyl)-1H-pyrrol-3-yl]-acrylamide]", "EC50": "27 to 4400"},
      {"compound": "CN(C)Cc1ccccc1-c1ccc(S(=O)(=O)n2ccc(/C=C/C(=O)NO)c2)cc1", "note": "[Compound 27, (E)-3-[1-(2′-Dimethylaminomethyl-biphenyl-4-sulfonyl)-1H-pyrrol-3-yl]-N-hydroxy-acrylamide]", "EC50": "27 to 4400"},
      {"compound": "O=C(/C=C/c1ccn(S(=O)(=O)c2cccc(-c3cccc(CN4CCOCC4)c3)c2)c1)NO", "note": "[Compound 31, (E)-N-Hydroxy-3-[1-(3′-morpholin-4-ylmethyl-biphenyl-3-sulfonyl)-1H-pyrrol-3-yl]-acrylamide]", "EC50": "27 to 4400"},
      {"compound": "COCCNCc1ccc(-c2cccc(S(=O)(=O)n3ccc(C=CC(=O)NO)c3)c2)cc1", "note": "[Compound 58, (E)-N-Hydroxy-3-(1-{4′-[(2-methoxy-othylamino)-methyl]-biphenyl-3-sulfonyl}-1H-pyrrol-3-yl)-acrylamide]", "EC50": "27 to 4400"},
      {"compound": "CN(C)Cc1ccc(-c2ccc(S(=O)(=O)n3ccc(/C=C/C(=O)NO)c3)s2)cc1", "note": "[Compound 46, (E)-3-{1-[5-(4-Dimethylaminomethyl-phenyl)-thiophene-2-sulfonyl]-1H-pyrrol-3-yl}-N-hydroxy-acrylamide]", "EC50": "27 to 4400"},
      {"compound": "O=C(/C=C/c1ccn(S(=O)(=O)c2cccc(-c3ccc(OCCN4CCCC4)cc3)c2)c1)NO", "note": "[Compound 43, (E)-N-Hydroxy-3-{1-[4′-(2-pyrrolidin-1-yl-ethoxy)-biphenyl-3-sulfonyl]-1H-pyrrol-3-yl}-acrylamide]", "EC50": "27 to 4400"},
      {"compound": "CN(C)CCNC(=O)c1cccc(-c2ccc(S(=O)(=O)n3ccc(C=CC(=O)NO)c3)cc2)c1", "note": "[Compound 25, 4′-[3-(E)-2-Hydroxycarbamoyl-vinyl)-pyrrole-1-sulfonyl]-biphenyl-3-carboxylic acid (2-dimethylamino-ethyl)-amide]", "EC50": "27 to 4400"},
      {"compound": "Nc1ccccc1NC(=O)/C=C/c1ccn(S(=O)(=O)c2cccc(-c3cccc(CCN4CCOCC4)c3)c2)c1", "note": "[Compound 18, (E)-N-(2-Amino-phenyl)-3-{1-[3′-(2-morpholin-4-yl-ethyl)-biphenyl-3-sulfonyl]-1H-pyrrol-3-yl}-acrylamide]", "EC50": "27 to 4400"},
      {"compound": "Nc1ccc(-c2cccc(S(=O)(=O)n3ccc(/C=C/C(=O)NO)c3)c2)cn1", "note": "[Compound 10, (E)-3-{1-[3-(6-Amino-pyridin-3-yl)-benzenesulfonyl]-1H-pyrrol-3-yl}-N-hydroxy-acrylamide]", "EC50": "27 to 4400"},
      {"compound": "O=C(/C=C/c1ccn(S(=O)(=O)c2ccc(-c3ccc(OCCN4CCOCC4)cc3)s2)c1)NO", "note": "[Compound 56, (E)-N-Hydroxy-3-(1-{5-[4-(2-morpholin-4-yl-ethoxy)-phenyl]-thiophene-2-sulfonyl}-1H-pyrrol-3-yl)-acrylamide]", "EC50": "27 to 4400"},
      {"compound": "CN(C)Cc1ccc(-c2ccc(S(=O)(=O)n3ccc(/C=C/C(=O)NO)c3)cc2)cc1", "note": "[Compound 26, (E)-3-[1-(4′-Dimethylaminomethyl-biphenyl-4-sulfonyl)-1H-pyrrol-3-yl]-N-hydroxy-acrylamide]", "EC50": "27 to 4400"},
      {"compound": "O=C(/C=C/c1ccn(S(=O)(=O)c2cccc(-c3ccc(CN4CCOCC4)cc3)c2)c1)NO", "note": "[Compound 36, (E)-N-Hydroxy-3-[1-(4′-morpholin-4-ylmethyl-biphenyl-3-sulfonyl)-1H-pyrrol-3-yl]-acrylamide]", "EC50": "27 to 4400"},
      {"compound": "CN1CCN(c2cc(-c3ccc(S(=O)(=O)n4ccc(/C=C/C(=O)NO)c4)s3)ccn2)CC1", "note": "[Compound 42, (E)-N-Hydroxy-3-(1-{5-[2-(4-methyl-piperazin-1-yl)-pyridin-4-yl]-thiophene-2-sulfonyl}-1H-pyrrol-3-yl)-acrylamide]", "EC50": "27 to 4400"},
      {"compound": "O=C(/C=C/c1ccn(S(=O)(=O)c2ccc(-c3cccc(CCN4CCOCC4)c3)cc2)c1)NO", "note": "[Compound 9, (E)-N-Hydroxy-3-{1-[3′-(2-morpholin-4-yl-ethyl)-biphenyl-4-sulfonyl]-1H-pyrrol-3-yl}-acrylamide]", "EC50": "27 to 4400"},
      {"compound": "CN1CCN(c2cc(-c3cccc(S(=O)(=O)n4ccc(/C=C/C(=O)NO)c4)c3)ccn2)CC1", "note": "[Compound 33, (E)-N-Hydroxy-3-(1-{3-[2-(4-methyl-piperazin-1-yl)-pyridin-4-yl]-benzenesulfonyl}-1H-pyrrol-3-yl)-acrylamide]", "EC50": "27 to 4400"},
      {"compound": "O=C(/C=C/c1ccn(S(=O)(=O)c2cccc(-c3cccc(CCN4CCOCC4)c3)c2)c1)NO", "note": "[Compound 20, (E)-N-Hydroxy-3-{1-[3′-(2-morpholin-4-yl-ethyl)-biphenyl-3-sulfonyl]-1H-pyrrol-3-yl}-acrylamide]", "EC50": "27 to 4400"},
      {"compound": "O=C(/C=C/c1ccn(S(=O)(=O)c2ccc(-c3ccc(CCN4CCOCC4)cc3)cc2)c1)NO", "note": "[Compound 8, (E)-N-Hydroxy-3-{1-[4′-(2-morpholin-4-yl-ethyl)-biphenyl-4-sulfonyl]-1H-pyrrol-3-yl}-acrylamide]", "EC50": "27 to 4400"},
      {"compound": "O=C(/C=C/c1ccn(S(=O)(=O)c2ccc(-c3ccc(OCCCN4CCOCC4)cc3)s2)c1)NO", "note": "[Compound 57, (E)-N-Hydroxy-3-(1-{5-[4-(3-morpholin-4-yl-propoxy)-phenyl]-thiophene-2-sulfonyl}-1H-pyrrol-3-yl)-acrylamide]", "EC50": "27 to 4400"},
      {"compound": "Nc1ccc(-c2cccc(S(=O)(=O)n3ccc(/C=C/C(=O)Nc4ccccc4N)c3)c2)cn1", "note": "[Compound 17, (E)-N-(2-Amino-phenyl)-3-{1-[3-(6-amino-pyridin-3-yl)-benzenesulfonyl]-1H-pyrrol-3-yl}-acrylamide]", "EC50": "27 to 4400"},
      {"compound": "CS(=O)(=O)Nc1cccc(-c2ccc(S(=O)(=O)n3ccc(/C=C/C(=O)NO)c3)cc2)c1", "note": "[Compound 22, (E)-N-hydroxy-3-[1-(3′-methanesulfonylamino-biphenyl-4-sulfonyl)-1H-pyrrol-3-yl]-acrylamide]", "EC50": "27 to 4400"}
    ]}
  ]
}
